Source: publication PMC7037732, “Synthesis of Combretastatin A-4 and 3′-Aminocombretastatin A-4 derivatives with Aminoacid Containing Pendants and Study of their Interaction with Tubulin and as Downregulators of the VEGF, hTERT and c-Myc Gene Expression” (Molecules, 2020)

Tests used:
hTERT gene = hTERT gene expression by RT-qPCR in HT-29 cells; assay type: cell-based, human; conditions: Homo sapiens, HT-29, 48 h, control 100; for mrna remaining at 0.015 µM: 15 nM; for mrna remaining at 0.0015 µM: 1.5 nM
Description: (§1) The effect on the expression of VEGF, hTERT and c-Myc genes has been studied for CA-4 and its derivatives that show selectivity indexes higher than 0.9 on the HT-29 cell line. The studied derivatives, together with the concentrations to which they have been tested, are CA-4 (15 μM); 4.1 (Gly, 5 μM); 4.5 (L-Pro, 25 μM); 4.9 (L-Met, 25 μM); 6.2 (D-Leu, 25 μM); 6.3 (D-Phe, 25 μM); 6.4 (D-Pro, 25 μM) and 6.5 (D-Ser, 10 μM). The expression of the genes was determined by RT-qPCR methodology, as described in the Materials and Methods section.
(§2) As regards AmCA-4 derivatives, the effect on the expression of the VEGF, hTERT and c-Myc genes has been studied on those that show IC50 in the low nanomolar range on the HT-29 cell line and/or on compounds whose selectivity indexes with respect to this cell line are higher than 1. The studied compounds, together with the concentrations to which they have been tested, are: CA-4 (15 μM), AmCA-4 (15 nM), 7.1 (7 nM), 7.2 (1.5 nM), 7.3 (4 nM), 7.4 (15 nM), 7.5 (2 nM), 7.7 (7 nM), 7.8 (15 nM), 7.9 (30 nM), 8.1 (7 nM), 8.2 (3 nM), 8.3 (10 nM), 8.4 (1.5 nM), 8.5 (4 nM), 8.7 (7 nM), 8.8 (3 nM) and 8.9 (4 nM).
(§3) HT-29 cells at 70–80% confluence were collected, and 1.5 × 10^5 cells were placed in a six-well plate in 1.5 mL of the medium. After 24 h, cells were incubated with the corresponding compounds for 48 h. Cells were collected, and the total cellular RNA from the HT-29 cells was isolated using an Ambion RNA Extraction Kit, according to the manufacturer’s instructions. The cDNA was synthesized by MMLV-RT with […] of extracted RNA and oligo(dT)15, according to the manufacturer’s instructions. Genes were amplified by a thermal cycler and StepOnePlus™ TaqMan® probes. TaqMan® Gene Expression Master Mix Fast, containing the appropriate buffer for the amplification conditions, dNTPs, thermostable DNA polymerase enzyme and a passive reference probe, was used. To amplify each of the genes, the predesigned primers sold by Life Technologies TaqMan® Gene Expression Assays Hs99999903-m1 (β-actin), Hs00900055-m1 (VEGF), Hs00972646-m1 (hTERT) and Hs00153408-m1 (c-Myc) were used.

purified tubulin = assay: Critical concentration (CrC) for the assembly of purified tubulin in GAB; assay type: biochemical; conditions: compound 27.5 μM, tubulin 25 μM, glycerol (GAB) and GTP assembly buffer; control 7.9 ± 1.2
Description: The effect on the self-assembly of tubulin was determined by measuring the critical concentration (CrC).

c-Myc gene = c-Myc gene expression by RT-qPCR in HT-29 cells; assay type: cell-based, human; conditions: HT-29, 48 h; for mrna remaining at 0.015 µM: 15 nM; for mrna remaining at 0.0015 µM: 1.5 nM
Description: as §1, §2, §3

[1] = system: HEK-293 (human embryonic kidney cells); assay: Inhibition of cell proliferation (MTT), nontumor HEK-293; assay type: cell-based; conditions: Table 2, 48 h of treatment (footnote), average ±SD of three experiments
From the text: (§4) The ability of the synthetic compounds to inhibit cell proliferation was established by means of their IC50 values towards the tumor cell lines HT-29 (human colon adenocarcinoma), MCF-7 (breast adenocarcinoma) and A-549 (human pulmonary adenocarcinoma), as well as towards the nontumor cell line HEK-293 (human embryonic kidney cells). Results for compounds derived from CA-4 are presented in Table 1, along with the calculated selectivity indexes SIA (for HT-29 cell line), SIB (for MCF-7 cell line) and SIc (for A-549 cell line), obtained by dividing the IC50 values of the nontumor cell line (HEK-293) by those of the corresponding tumor cell line. The higher the SI index, the higher the therapeutic safety margin.
(§5) Cell culture media were purchased from Gibco (Grand Island, NY, USA). Fetal bovine serum (FBS) was a product of Harlan-Seralab (Belton, U.K.). Supplements and other chemicals not listed in this section were obtained from Sigma Chemical Co. (St. Louis, MO, USA). Plastics for cell culture were supplied by Thermo Fischer Scientific Inc., Madrid, Spain. All tested compounds were dissolved in DMSO at a concentration of 10 μg/mL and stored at −20 °C until use. HT-29, MCF-7, A-549 and HEK-293 cell lines were maintained in a Dulbecco’s modified Eagle’s medium (DMEM) containing glucose (1 g/L), glutamine (2 mM), penicillin (50 IU/mL), streptomycin (50 μg/mL) and amphotericin B (1.25 μg/mL), supplemented with 10% FBS. Cells from human non-small lung carcinoma (clone A549; ATCC n°: CCL2, MD, USA) were routinely grown at 37 °C in a humidified atmosphere of 5% CO2. Cells were maintained in a standard medium composed of RPMI 1640 (Lonza, Group Ltd., Basel, Switzerland), supplemented with 10% fetal bovine serum (FBS), 2 mM L-glutamine and 1% penicillin and streptomycin (Invitrogen). Cells were free from mycoplasma as determined by MycoAlert tests (Lonza, Group Ltd., Basel, Switzerland).
(§6) A total of 5 × 10^3 HT-29, MCF-7 or HEK-293 cells in a total volume of 100 μL of their respective growth media were incubated with serial dilutions of the tested compounds. The 3-(4,5-dimethylthiazol-2-yl)-2,5-diphenyltetrazolium bromide (MTT; Sigma Chemical Co.) dye reduction assay in a 96-well microplate was used, as previously described. […] The resulting formazan was dissolved in 150 μL of 0.04 N HCl/2-propanol and read at 550 nm. All determinations were carried out in triplicate.

[2] = system: A-549 (human pulmonary adenocarcinoma); assay: Inhibition of cell proliferation (MTT), A-549; assay type: cell-based; conditions: Homo sapiens, A549, 48 h, Table 2; 48 h of treatment (footnote); average ±SD of three experiments
From the text: as §4
as §5, with “Switzerland). […]” for “Switzerland).”

[3] = system: HT-29 (human colon adenocarcinoma); assay: Inhibition of cell proliferation (MTT), HT-29; assay type: cell-based; conditions: Homo sapiens, HT-29, 48 h, Table 2; 48 h of treatment (footnote); average ±SD of three experiments
From the text: as §4, §5, §6

VEGF gene = VEGF gene expression by RT-qPCR in HT-29 cells; assay type: cell-based, human; conditions: HT-29, 48 h; for mrna remaining at 0.015 µM: 15 nM; for mrna remaining at 0.0015 µM: 1.5 nM
Description: as §1, §2, §3

[4] = system: MCF-7 (breast adenocarcinoma); assay: Inhibition of cell proliferation (MTT), MCF-7; assay type: cell-based, human; conditions: Table 2, 48 h of treatment (footnote), average ±SD of three experiments
From the text: as §4, §5, §6

A-549 cells = assay: Cell cycle distribution by flow cytometry; assay type: cell-based, human; conditions: A-549, 24 h, 0.5 µM
Description: The effects of some CA-4 derivatives on the cell cycle were evaluated in A-549 cells.
The effects of some AmCA-4 derivatives on the cell cycle were also evaluated in A-549 cells.
The supernatant and trypsinated cells were harvested and then centrifuged (1200 rpm, 5 min, 4 °C). The cell pellet was resuspended in 1 mL of cold 70% ethanol for 30 min at −20 °C. Cells were centrifuged (2000 rpm, 5 min, 4 °C) to remove ethanol, and then the cell pellet was resuspended in the staining mix containing 50 µg/mL propidium iodide (Molecular Probes, France) and 100 µg/mL RNAse A (Sigma, France) in PBS for 20 min at room temperature in darkness. Samples were analyzed on a Becton Dickinson FACScan flow cytometer using the CellQuest software, which was also used to determine the percentage of cells in the G2/M phases of the cell cycle. PI was excited at 488 nm, and fluorescence analyzed at 620 nm on channel Fl-2.

tubulin = assay: In vitro tubulin polymerization by turbidimetry (It50); assay type: biochemical; conditions: turbidimetry at 350 nm, 37 °C
Description: Figure 3 also includes polymerization curves in the presence of CA-4, AmCA-4 and paclitaxel. This test was also performed using paclitaxel, a microtubule stabilizing agent, as a control for the complete formation of microtubules (see Figure 3).

[5] = Homo sapiens, 3 nM, control 100
[6] = Homo sapiens, 4 nM, control 100
[7] = discussion, concentration per compound

Structure (SMILES): COc1ccc(/C=C\c2cc(OC)c(OC)c(OC)c2)cc1NC(=O)[C@H](Cc1ccc(O)cc1)NC(=O)OCC1c2ccccc2-c2ccccc21 [Compound 7.8]
- mrna remaining at 0.015 µM (hTERT gene): 76%
- CrC (critical concentration) (purified tubulin): 10.1 ± 1.1 µM
- mrna remaining at 0.015 µM (c-Myc gene; Homo sapiens, control 100): > 100%
- IC50 ([1]; Homo sapiens, HEK293, 48 h): 16 ± 2 nM
- IC50 [2]: 8900 ± 1200 nM
- IC50 [3]: 18 ± 5 nM
- mrna remaining at 0.015 µM (VEGF gene; Homo sapiens, control 100): 51%
- IC50 ([4]; Homo sapiens, MCF7, 48 h): 12 ± 2 nM

Structure (SMILES): COc1ccc(/C=C\c2cc(OC)c(OC)c(OC)c2)cc1NC(=O)[C@@H](N)Cc1ccc(O)cc1 [Compound 8.8]
- mrna remaining at 0.003 µM (hTERT gene; 3 nM): 46%
- G0/G1 (A-549 cells): 30 ± 2%
- G2/M (A-549 cells): 52 ± 3%
- S (A-549 cells): 18 ± 1%
- CrC (critical concentration) (purified tubulin): 7.7 ± 0.8 µM
- mrna remaining at 0.003 µM (c-Myc gene; [5]): 42%
- IC50 ([1]; Homo sapiens, HEK293, 48 h): < 5 nM
- IC50 [1]: 2.7 ± 1.4 nM
- IC50 [2]: 206 ± 20 nM
- mrna remaining at 0.003 µM (VEGF gene; [5]): 72%
- IC50 ([4]; Homo sapiens, MCF7, 48 h): < 5 nM
- IC50 [4]: 4.9 ± 0.2 nM

Structure (SMILES): COc1ccc(/C=C\c2cc(OC)c(OC)c(OC)c2)cc1NC(=O)[C@@H](NC(=O)OCC1c2ccccc2-c2ccccc21)C(C)C [Compound 7.3]
- mrna remaining at 0.004 µM (hTERT gene; 4 nM): > 100%
- CrC (critical concentration) (purified tubulin): 6.9 ± 0.3 µM
- mrna remaining at 0.004 µM (c-Myc gene; [6]): 63%
- IC50 ([1]; Homo sapiens, HEK293, 48 h): 60 ± 20 nM
- IC50 [2]: 870 ± 60 nM
- IC50 [3]: 130 ± 40 nM
- mrna remaining at 0.004 µM (VEGF gene; [6]): 23%
- IC50 ([4]; Homo sapiens, MCF7, 48 h): 100 ± 50 nM

Structure (SMILES): COc1ccc(/C=C\c2cc(OC)c(OC)c(OC)c2)cc1NC(=O)[C@H](C)NC(=O)OCC1c2ccccc2-c2ccccc21 [Compound 7.2]
- mrna remaining at 0.0015 µM (hTERT gene): 79%
- G0/G1 (A-549 cells): 28 ± 1%
- G2/M (A-549 cells): 53 ± 2%
- S (A-549 cells): 19 ± 2%
- CrC (critical concentration) (purified tubulin): 9.4 ± 0.3 µM
- downregulation of c-Myc gene expression (c-Myc gene; [7]): more than 60%
- mrna remaining at 0.0015 µM (c-Myc gene; Homo sapiens, control 100): 22%
- IC50 [2]: 242 ± 13 nM
- downregulation of VEGF gene expression (VEGF gene; [7]): more than 60%
- mrna remaining at 0.0015 µM (VEGF gene; Homo sapiens, control 100): 25%

Structure (SMILES): COc1ccc(/C=C\c2cc(OC)c(OC)c(OC)c2)cc1NC(=O)[C@@H](N)CC(C)C [Compound 8.4]
- mrna remaining at 0.0015 µM (hTERT gene): 73%
- G0/G1 (A-549 cells): 35 ± 1%
- G2/M (A-549 cells): 48 ± 1%
- S (A-549 cells): 17 ± 2%
- CrC (critical concentration) (purified tubulin): 8.3 ± 0.3 µM
- mrna remaining at 0.0015 µM (c-Myc gene; Homo sapiens, control 100): 48%
- IC50 [2]: 167 ± 23 nM
- mrna remaining at 0.0015 µM (VEGF gene; Homo sapiens, control 100): 67%

Structure (SMILES): COc1ccc(/C=C\c2cc(OC)c(OC)c(OC)c2)cc1NC(=O)[C@H](CC(C)C)NC(=O)OCC1c2ccccc2-c2ccccc21 [Compound 7.4]
- mrna remaining at 0.015 µM (hTERT gene): 96%
- CrC (critical concentration) (purified tubulin): 9.9 ± 0.8 µM
- mrna remaining at 0.015 µM (c-Myc gene; Homo sapiens, control 100): 94%
- IC50 ([1]; Homo sapiens, HEK293, 48 h): 14 ± 3 nM
- IC50 [2]: 490 ± 13 nM
- IC50 [3]: 23 ± 10 nM
- mrna remaining at 0.015 µM (VEGF gene; Homo sapiens, control 100): 58%
- IC50 ([4]; Homo sapiens, MCF7, 48 h): 9 ± 2 nM

Structure (SMILES): CC(=O)O[C@H]1C(=O)[C@@]2(C)[C@H]([C@H](OC(=O)c3ccccc3)[C@]3(O)C[C@H](OC(=O)[C@H](O)[C@@H](NC(=O)c4ccccc4)c4ccccc4)C(C)=C1C3(C)C)[C@]1(OC(C)=O)CO[C@@H]1C[C@@H]2O [Paclitaxel, paclitaxel, reference compound]
- time to reach the plateau phase of polymerization (tubulin): 30 min
- It50 (time required to reach 50% of the polymerization) (tubulin; control 16.6 ± 1.0): 3.2 ± 0.4 min
- Effect on in vitro tubulin polymerization (tubulin; result in words): promotes tubulin polymerization
